SMILES strings stand for the structures.

Usually IC50 stands for the midpoint of a concentration-inhibition curve.

Series [1] is described as follows: Metabolic stability in human liver microsomes (HLM). Particulars: from HLM half-life, well-stirred model, phase I reactions; 1 μM, 0.5 mg/ml protein. It is filed as in vitro ADME. As to the method:
EXAMPLE 18 METABOLIC STABILITY OF (11β,17β)-17-HYDROXY-11[4-(METHYLSULPHONYL)PHENYL]-17-(PENTAFLUOROETHYL)ESTRA-4,9-DIEN-3-ONE AND (11β,17β)-17-HYDROXY-11-[4′-(METHYLSULPHONYL)-BIPHENYL-4-YL]-17-(PENTAFLUOROETHYL)ESTRA-4,9-DIEN-3-ONE IN HUMAN LIVER MICROSOMES (HLM)
Isolated human liver microsomes (HLM) were used for assessing the metabolic stability of compounds of general formula I.
Incubations were carried out with 2.4 ml of HLM solution (0.5 mg/ml protein content), 30 μl of the test compound (final concentration 1 μM) and 0.6 ml of the cofactor mixture (=NADPH-generating system of 3 IU glucose-6-phosphate dehydrogenase, 14.6 mg glucose-6-phosphate, 1.2 mg NADP) at 37° C. in 100 mM phosphate buffer at pH 7.4. Samples are taken at 6 time points (2-60 min), precipitated with an equal volume of methanol and the recovery of the test substances used in the supernatant is determined by LC-MS/MS analysis. The intrinsic clearance of the substance in the liver microsome preparation can be calculated from the half-life found for the breakdown of the substance. Based on this, together with various physiological characteristics according to the well-stirred model, it is then possible to predict a (metabolic) in vivo clearance with respect to phase I reactions. […]
In general terms: Liver microsomes are a subcellular fraction often used to study metabolism.

Series [2] deals with T1, human progesterone receptor A (Homo sapiens, UniProt P06401).
T1 construct: expressed in transfected cells; host or cells: SK-N-MC human neuroblastoma cells, stably transfected
T1 sequence (P06401 1-769 isoform P06401-2): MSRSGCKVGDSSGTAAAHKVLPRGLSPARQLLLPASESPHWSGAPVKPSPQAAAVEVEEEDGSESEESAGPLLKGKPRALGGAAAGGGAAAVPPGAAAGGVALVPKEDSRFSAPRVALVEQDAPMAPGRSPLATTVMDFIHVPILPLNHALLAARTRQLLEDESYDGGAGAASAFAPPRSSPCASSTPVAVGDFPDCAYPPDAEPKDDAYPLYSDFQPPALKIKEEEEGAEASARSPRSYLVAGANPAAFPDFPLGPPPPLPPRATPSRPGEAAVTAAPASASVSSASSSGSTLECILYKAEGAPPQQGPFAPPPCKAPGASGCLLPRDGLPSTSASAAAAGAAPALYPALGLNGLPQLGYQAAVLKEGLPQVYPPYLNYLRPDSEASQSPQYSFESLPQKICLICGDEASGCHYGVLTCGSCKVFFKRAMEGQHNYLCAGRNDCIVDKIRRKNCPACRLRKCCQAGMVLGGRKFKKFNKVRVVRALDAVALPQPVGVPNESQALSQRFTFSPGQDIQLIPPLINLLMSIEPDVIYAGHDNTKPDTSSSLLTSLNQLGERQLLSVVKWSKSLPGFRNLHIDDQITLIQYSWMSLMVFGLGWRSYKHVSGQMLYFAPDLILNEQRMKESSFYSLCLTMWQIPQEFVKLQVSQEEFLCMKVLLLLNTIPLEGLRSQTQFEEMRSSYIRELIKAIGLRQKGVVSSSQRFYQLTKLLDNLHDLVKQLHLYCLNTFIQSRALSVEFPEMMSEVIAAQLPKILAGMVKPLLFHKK
The experiment in a line: Progesterone receptor-antagonistic action in stably transfected SK-N-MC cells, MTV-LUC reporter (PR-A). Type of series: cell-based. Particulars: antagonism of 0.1 nmol/l promegestone, 24 hours, LUC reporter, read-out: Progesterone receptor A (PR-A) Potency IC50. The method, then:
(§1) EXAMPLE 16 PROGESTERONE RECEPTOR-ANTAGONISTIC ACTION IN STABLE TRANSFECTANTS OF HUMAN NEUROBLASTOMA CELLS (SK-N-MC CELLS) WITH THE HUMAN PROGESTERONE A OR PROGESTERONE B RECEPTOR AND AN MTV-LUC REPORTER CONSTRUCT
(§2) SK-N-MC cells (human neuroblastoma cells), which have been stably transfected with plasmids, which express the human progesterone receptor B (pRChPR-B-neo) or the human progesterone receptor A (pRChPR-A-neo) and a reporter construct (pMMTV-LUC), were incubated for 24 hours either in the absence (negative control) or in the presence of increasing amounts of the respective test compound (0.01 nmol/l, 0.1 nmol/l 1 nmol/l, 10 nmol/l, 100 nmol/l and 1 μmol/l), in order to determine the agonistic efficacy. As positive control of reporter gene induction, the cells were treated with the synthetic gestagen promegestone (0.01 nmol/l, 0.1 nmol/l, 1 nmol/l, 10 nmol/l, 100 nmol/l and 1 μmol/l). For determination of the antagonistic activity, the cells were treated with 0.1 nmol/1 promegestone and additionally with increasing amounts of the respective test compound (0.01 nmol/l, 0.1 nmol/l, 1 nmol/l, 10 nmol/l, 100 nmol/l and 1 μmol/l). The activity of the LUC reporter gene (LUC=luciferase) was determined in the cell lysates and was measured as RLU (relative light units). All measured values are given as percentage efficacy and as EC50 or IC50 concentrations.
(§3) 11β-(4-Acetylphenyl)-20,20,21,21,21-pentafluoro-17-hydroxy-19-nor-17α-pregna-4,9-dien-3-one and 20,20,21,21,21-pentafluoro-17-hydroxy-11β-[4-(hydroxyacetyl)phenyl]-19-nor-17α-pregna-4,9-dien-3-one, very potent and therefore preferred examples from WO98/34947 and WO2008/058767, were tested as comparative compounds along with the test compound.

The target of series [3] is T2, human progesterone receptor B (Homo sapiens, UniProt P06401).
T2 construct: expressed in transfected cells; host or cells: SK-N-MC human neuroblastoma cells, stably transfected
T2 sequence (P06401 1-933): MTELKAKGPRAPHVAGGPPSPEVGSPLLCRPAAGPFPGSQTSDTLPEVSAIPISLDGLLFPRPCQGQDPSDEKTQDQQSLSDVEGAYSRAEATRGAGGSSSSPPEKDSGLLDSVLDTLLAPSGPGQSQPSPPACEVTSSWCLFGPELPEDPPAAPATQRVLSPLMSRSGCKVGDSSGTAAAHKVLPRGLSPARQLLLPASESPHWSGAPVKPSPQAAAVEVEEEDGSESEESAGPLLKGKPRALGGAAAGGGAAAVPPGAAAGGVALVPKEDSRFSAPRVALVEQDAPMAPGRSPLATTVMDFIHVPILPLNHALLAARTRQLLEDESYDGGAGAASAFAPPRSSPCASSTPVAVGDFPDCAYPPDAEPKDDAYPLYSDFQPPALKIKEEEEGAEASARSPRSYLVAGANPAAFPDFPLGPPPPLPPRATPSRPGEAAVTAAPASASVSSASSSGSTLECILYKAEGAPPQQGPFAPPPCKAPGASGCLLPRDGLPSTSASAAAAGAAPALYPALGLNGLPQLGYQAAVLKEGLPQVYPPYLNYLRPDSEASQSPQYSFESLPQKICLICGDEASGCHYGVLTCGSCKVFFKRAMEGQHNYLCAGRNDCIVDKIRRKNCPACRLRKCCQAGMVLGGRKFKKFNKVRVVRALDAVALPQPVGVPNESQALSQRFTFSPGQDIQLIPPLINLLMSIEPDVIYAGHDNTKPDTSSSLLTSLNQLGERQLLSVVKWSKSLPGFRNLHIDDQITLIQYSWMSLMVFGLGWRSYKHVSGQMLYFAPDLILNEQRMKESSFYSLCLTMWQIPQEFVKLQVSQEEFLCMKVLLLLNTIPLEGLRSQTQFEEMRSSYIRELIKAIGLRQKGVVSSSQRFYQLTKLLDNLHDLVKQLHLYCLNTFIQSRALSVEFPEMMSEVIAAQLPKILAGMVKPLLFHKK
The experiment in a line: Progesterone receptor-antagonistic action in stably transfected SK-N-MC cells, MTV-LUC reporter (PR-B). It is filed as cell-based. Particulars: antagonism of 0.1 nmol/l promegestone, 24 hours, LUC reporter, read-out: Progesterone receptor B (PR-B) Potency IC50. The method, then:
as §1, §2, §3

As to `C[C@]12C[C@H](c3ccc(-c4ccc(S(C)(=O)=O)cc4)cc3)C3=C4CCC(=O)C=C4CC[C@H]3[C@@H]1CC[C@@]2(O)C(F)(F)C(F)(F)F` [Example 10, (11β,17β)-17-hydroxy-11-[4′-(methylsulphonyl)biphenyl-4-yl]-17-(pentafluoroethy)estra-4,9-dien-3-one], the “(metabolic) in vivo clearance in humans predicted” value in series [1] was under 0.17 mL/min/kg. For the same molecule, the half-inhibitory concentration (IC50) in series [2] is 11 pM; in series [3] it was 13 pM.

The values above are taken from US10155004B2, “17-hydroxy-17-pentafluoroethyl-estra-4,9(10)-dien-11-aryl derivatives, method of production thereof and use thereof for the treatment of diseases” (BAYER INTELLECTUAL PROPERTY GMBH, priority 2009, dated 2018).
